Source: patent publication US10919785B2, “Hydraulic conveyor of floating objects provided with a device for sanitising conveying composition, plant provided with such a conveyor and sanitising method” (MAF AGROBOTIC, priority 2016, dated 2021)
Where two headings read alike, the source gives them in different places.

Experiments:
[1] = format: physicochemical
Description: A hydraulic conveyor of a plant for sorting and packaging apples is selected containing a volume of 90 m^3 of a conveying composition containing “BELLIS” at a concentration of 50 m g/l (and boscalid at a concentration of 22 μg/l). A flow rate of the conveying composition of 36 m^3/h is established in the external circuit using the circulation pump 14 and a flow rate of photoreactive composition of 270 cm^3/h is established using the distribution pump 19, the photoreactive composition being an aqueous solution of hydrogen peroxide at an initial concentration of 400 g/l, i.e. 108 g or pure hydrogen peroxide. Under these conveying composition flow conditions, all of the volume of the conveying composition contained in the plant is theoretically treated within 2.5 hours. The composition to be sanitised obtained at the inlet of the sanitising device thus has an initial hydrogen peroxide proportion in the order of 3 ppm and is sufficient to allow the decontamination of the composition to be sanitised at the outlet of the sanitising device formed of 6 photolysis chambers mounted in series, each chamber comprising five fluorescent tubes with an individual power of 200 W.
The results obtained are shown in Table 1 hereinafter in which the concentration values of boscalid in the composition to be sanitised at the inlet of the photolysis tank (EC), at the outlet of the third chamber (S3E) of the photolysis tank and at the outlet of the sixth chamber (S6E) of the photolysis tank are given in μg/l. The column S6E/EC represents the ratio multiplied by 100 of the boscalid concentration at the outlet of the sixth chamber (S6E) of the photolysis tank to the boscalid concentration at the inlet of the photolysis tank (EC). The column C/C0 represents the ratio of the boscalid concentration measured at the inlet of the photolysis tank over time to the initial boscalid concentration (t=0).

[2] = Example 3: UV/hydrogen peroxide sanitising of 90 m^3 apple conveying water, six photolysis chambers in series; format: physicochemical
Text: A hydraulic conveyor of a plant for sorting and packaging apples is selected containing a volume of 90 m^3 of water as composition for conveying Ariane, Rosy Glow and Pink Lady apples. A flow rate of conveying composition of 36 m^3/h is established in the external circuit and a flow rate of photoreactive composition of […] is established, the photoreactive composition being an aqueous solution of hydrogen peroxide at an initial concentration of 400 g/l. Under these flow conditions, all of the volume of the conveying composition of the hydraulic conveyor is theoretically treated within 2.5 hours. The composition at the inlet of the sanitising device has an initial hydrogen peroxide proportion in the order of 3 ppm sufficient to allow the decontamination of the composition at the outlet of the sanitising device formed of six photolysis chambers mounted in series, each chamber comprising five fluorescent tubes with an individual power of 200 W.
The results obtained are shown in Table 2 hereinafter in which the concentration values of boscalid from the apples conveyed with the composition to be sanitised at the inlet of the sanitising device (EC) and at the outlet of sanitising device (SC) are given in μg/l. The column SE/EC represents the ratio multiplied by 100 of the boscalid concentration at the outlet of the sixth chamber of the photolysis tank to the boscalid concentration at the inlet of the photolysis tank (EC). The column C/C0 represents the ratio of the boscalid concentration measured at the inlet of the sanitising device over time to the initial boscalid concentration (t=0).

## O=C(Nc1ccccc1-c1ccc(Cl)cc1)c1cccnc1Cl [boscalid]
[1]; 22 μg/l
  rate of degradation between the inlet and outlet of the photolysis tank: greater than 90%
[1]; time 0 hours
  boscalid concentration at the inlet of the photolysis tank (EC): 21.43 µg/L
[1]; time 1.25 hours
  C/C0 (inlet boscalid concentration over initial concentration): 0.79
  S6E/EC: 92%
  boscalid concentration at the inlet of the photolysis tank (EC): 16.64 µg/L
  boscalid concentration at the outlet of the sixth chamber (S6E): 1.28 µg/L
[1]; time 2.5 hours
  C/C0 (inlet boscalid concentration over initial concentration): 0.73
  S6E/EC: 94%
  boscalid concentration at the inlet of the photolysis tank (EC): 15.68 µg/L
  boscalid concentration at the outlet of the sixth chamber (S6E): 0.99 µg/L
  boscalid concentration at the outlet of the third chamber (S3E): 3.96 µg/L
[1]; time 3.75 hours
  C/C0 (inlet boscalid concentration over initial concentration): 0.73
  S6E/EC: 94%
  boscalid concentration at the inlet of the photolysis tank (EC): 15.56 µg/L
  boscalid concentration at the outlet of the sixth chamber (S6E): 0.91 µg/L
  boscalid concentration at the outlet of the third chamber (S3E): 3.38 µg/L
[1]; time 5 hours
  C/C0 (inlet boscalid concentration over initial concentration): 0.66
  S6E/EC: 94%
  boscalid concentration at the inlet of the photolysis tank (EC): 14.06 µg/L
  boscalid concentration at the outlet of the sixth chamber (S6E): 0.56 µg/L
  boscalid concentration at the outlet of the third chamber (S3E): 2.71 µg/L
[1]; time 7.5 hours
  C/C0 (inlet boscalid concentration over initial concentration): 0.38
  boscalid concentration at the inlet of the photolysis tank (EC): 8.25 µg/L
  boscalid concentration at the outlet of the third chamber (S3E): 1.78 µg/L
[1]; within 7.5 hours
  elimination from the conveying composition of the hydraulic conveyor: 62%
[2]; time 0 hours
  boscalid concentration at the inlet of the sanitising device (EC): 2.83 µg/L
  percent boscalid removed between inlet and outlet of the sanitising device (100 x (1 - SC/EC)): 100%
[2]; time 4 hours
  boscalid concentration at the inlet of the sanitising device (EC): 4.76 µg/L
  boscalid concentration at the outlet of the sanitising device (SC): 0.065 µg/L
  percent boscalid removed between inlet and outlet of the sanitising device (100 x (1 - SC/EC)): 98.6%
[2]; time 7 hours
  boscalid concentration at the inlet of the sanitising device (EC): 2.84 µg/L
  boscalid concentration at the outlet of the sanitising device (SC): 0.206 µg/L
  percent boscalid removed between inlet and outlet of the sanitising device (100 x (1 - SC/EC)): 92.8%
[2]; time 7.1 hours
  C/C0 (inlet boscalid concentration over initial concentration): 1
  boscalid concentration at the inlet of the sanitising device (EC): 4.19 µg/L
  percent boscalid removed between inlet and outlet of the sanitising device (100 x (1 - SC/EC)): 100%
[2]; time 10.5 hours
  C/C0 (inlet boscalid concentration over initial concentration): 0.41
  boscalid concentration at the inlet of the sanitising device (EC): 1.73 µg/L
  boscalid concentration at the outlet of the sanitising device (SC): 0.062 µg/L
  percent boscalid removed between inlet and outlet of the sanitising device (100 x (1 - SC/EC)): 96.4%
[2]; time 12.5 hours
  C/C0 (inlet boscalid concentration over initial concentration): 0.32
  boscalid concentration at the inlet of the sanitising device (EC): 1.35 µg/L
  percent boscalid removed between inlet and outlet of the sanitising device (100 x (1 - SC/EC)): 100%
[2]; time 14.75 hours
  C/C0 (inlet boscalid concentration over initial concentration): 0.41
  boscalid concentration at the inlet of the sanitising device (EC): 1.71 µg/L
  boscalid concentration at the outlet of the sanitising device (SC): 0.058 µg/L
  percent boscalid removed between inlet and outlet of the sanitising device (100 x (1 - SC/EC)): 96.6%
[2]; time 17.25 hours
  C/C0 (inlet boscalid concentration over initial concentration): 0.28
  boscalid concentration at the inlet of the sanitising device (EC): 1.18 µg/L
  boscalid concentration at the outlet of the sanitising device (SC): 0.040 µg/L
  percent boscalid removed between inlet and outlet of the sanitising device (100 x (1 - SC/EC)): 96.6%
[2]; time 19.25 hours
  C/C0 (inlet boscalid concentration over initial concentration): 0.45
  boscalid concentration at the inlet of the sanitising device (EC): 1.88 µg/L
  percent boscalid removed between inlet and outlet of the sanitising device (100 x (1 - SC/EC)): 100%
[2]; time 22.75 hours
  C/C0 (inlet boscalid concentration over initial concentration): 0.25
  boscalid concentration at the inlet of the sanitising device (EC): 1.07 µg/L
  boscalid concentration at the outlet of the sanitising device (SC): 0.064 µg/L
  percent boscalid removed between inlet and outlet of the sanitising device (100 x (1 - SC/EC)): 94%
[2]; time 24.75 hours
  C/C0 (inlet boscalid concentration over initial concentration): 0.15
  boscalid concentration at the inlet of the sanitising device (EC): 0.64 µg/L
  boscalid concentration at the outlet of the sanitising device (SC): 0.057 µg/L
  percent boscalid removed between inlet and outlet of the sanitising device (100 x (1 - SC/EC)): 91.2%
[2]; time 28.75 hours
  C/C0 (inlet boscalid concentration over initial concentration): 0.16
  boscalid concentration at the inlet of the sanitising device (EC): 0.66 µg/L
  boscalid concentration at the outlet of the sanitising device (SC): 0.039 µg/L
  percent boscalid removed between inlet and outlet of the sanitising device (100 x (1 - SC/EC)): 94%
[2]; time 29.75 hours
  C/C0 (inlet boscalid concentration over initial concentration): 0.22
  boscalid concentration at the inlet of the sanitising device (EC): 0.93 µg/L
  percent boscalid removed between inlet and outlet of the sanitising device (100 x (1 - SC/EC)): 100%
[2]; time 32.25 hours
  C/C0 (inlet boscalid concentration over initial concentration): 0.19
  boscalid concentration at the inlet of the sanitising device (EC): 0.79 µg/L
  boscalid concentration at the outlet of the sanitising device (SC): 0.040 µg/L
  percent boscalid removed between inlet and outlet of the sanitising device (100 x (1 - SC/EC)): 95%
[2]; time 34.75 hours
  C/C0 (inlet boscalid concentration over initial concentration): 0.17
  boscalid concentration at the inlet of the sanitising device (EC): 0.73 µg/L
  boscalid concentration at the outlet of the sanitising device (SC): 0.043 µg/L
  percent boscalid removed between inlet and outlet of the sanitising device (100 x (1 - SC/EC)): 94.1%
